Data as given in PMC4476799, “Englerin A Agonizes the TRPC4/C5 Cation Channels to Inhibit Tumor Cell Line Proliferation” (PLoS ONE, 2015).
Where “and” joins values, the source holds several entries; their conditions need not be identical. Equal values may be shown once.

Columns and labels:
TRPC4 = target: T1, TRPC4 (Homo sapiens, UniProt Q9UBN4); experiment: Electrophysiology (QPatch-HT automated patch clamp, voltage ramp); type: cell-based; details: TRPC4 expressing HEK293T cells
T1 construct: host or cells: Flp-In T-REx-293 (called HEK293T with Dox-inducible TRPC4)
T1 sequence (Q9UBN4 1-977): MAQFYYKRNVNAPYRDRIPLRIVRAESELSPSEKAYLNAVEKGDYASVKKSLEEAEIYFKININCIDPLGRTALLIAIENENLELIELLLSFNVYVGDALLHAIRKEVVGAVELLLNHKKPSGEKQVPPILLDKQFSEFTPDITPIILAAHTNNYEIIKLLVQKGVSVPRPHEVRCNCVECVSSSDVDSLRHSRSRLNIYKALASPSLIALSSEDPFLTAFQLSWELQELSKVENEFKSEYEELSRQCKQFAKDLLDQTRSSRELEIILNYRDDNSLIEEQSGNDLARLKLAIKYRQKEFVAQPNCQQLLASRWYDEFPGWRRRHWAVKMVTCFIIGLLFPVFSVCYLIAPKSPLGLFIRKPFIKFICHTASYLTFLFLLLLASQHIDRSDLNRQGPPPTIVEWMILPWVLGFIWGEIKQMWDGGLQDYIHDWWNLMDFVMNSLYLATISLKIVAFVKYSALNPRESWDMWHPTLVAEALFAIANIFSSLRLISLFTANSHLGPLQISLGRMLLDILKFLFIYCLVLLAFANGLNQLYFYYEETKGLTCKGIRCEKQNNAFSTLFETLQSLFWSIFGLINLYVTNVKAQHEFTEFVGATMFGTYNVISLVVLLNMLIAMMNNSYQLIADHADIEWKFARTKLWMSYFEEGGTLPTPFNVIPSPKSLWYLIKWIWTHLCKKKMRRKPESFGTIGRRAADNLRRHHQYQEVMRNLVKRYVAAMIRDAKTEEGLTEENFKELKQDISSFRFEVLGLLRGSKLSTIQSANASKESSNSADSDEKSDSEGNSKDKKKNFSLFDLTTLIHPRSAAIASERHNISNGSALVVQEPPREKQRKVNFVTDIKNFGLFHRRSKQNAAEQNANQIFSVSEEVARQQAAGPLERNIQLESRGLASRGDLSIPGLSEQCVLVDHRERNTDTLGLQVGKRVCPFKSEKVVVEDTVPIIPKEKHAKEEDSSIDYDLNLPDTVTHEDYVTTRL
Method: TRPC4 currents were recorded from HEK293T cells with Dox-inducible TRPC4 on the QPatch-HT automated patch clamp system at room temperature (21–24°C) (Biolin Scientific, Stockholm, Sweden). The internal solution contained (in mM): 150 Cs-aspartate, 2 MgCl2, 0.36 CaCl2, 1 EGTA, 4 MgATP, 0.3 NaGTP and 10 HEPES, pH = 7.20 with CsOH (calculated free [Ca^2+] = 100 nM using WebMaxChelator http://www.stanford.edu/~cpatton/maxc.html, assuming an ionic strength of 0.16). The standard external solution contained (in mM): 150 NaCl, 4 KCl, 2 CaCl2, 1 MgCl2, 10 HEPES and 10 D-glucose (pH = 7.40) with NaOH. Currents were elicited by a voltage ramp protocol consisting of a 50 ms step to −100 mV, followed by a 200 ms ramp to +100 mV and 10 ms at +100 mV. Voltage ramps were applied every 10 s from a holding potential of 0 mV. Results were expressed as means ± S.E.M.

[1] = male, Sprague Dawley, rat, in vivo, po, 5 mg/kg
Method: A 25 μl aliquot of sample was subjected to protein precipitation using 150 μl of acetonitrile containing 100 ng/ml of internal standard (glyburide). After vortex and centrifugation for 5 minutes at 4000 revolutions per minute, 125 μl of supernatant was transferred to a 1 ml 96-well plate, followed by the addition of 50 μl of water. The analysis was conducted by using HPLC separation coupled with mass spectrometric detection.
Agilent 1100 (Santa Clara, CA) was used for LC separations coupled with CTC PAL (Zwingen, Switzerland). […] A Sciex API 4000 Q Trap mass spectrometer equipped with a Turbo Ionspray interface from Applied Biosystems (Framingham, MA) was used for detection. The instrument was operated in the positive ion MRM mode employing nitrogen as a collision gas. […] Data were acquired and processed by Sciex Analyst 1.5.2 software.
Standard regression and back-calculation of unknown concentrations were performed by Thermo Watson 7.4 software purchased from Thermo Fisher Scientific, Inc. (Philadelphia, PA). Quantification of the parent compound in rat blood was based on at least 5-point calibration curve. […] The bias of all calibration standards and quality control samples was within the acceptance criteria of ± 30%.

[2] = Anesthetized rat experiments (hemodynamics, blood levels); type: in vivo; details: individual animals; for Outcome: IV infusion 0.3 mg/kg englerin B (doses up to 0.3 mg/kg); for Compound concentration in blood: IV infusion 0.3 mg/kg englerin B
Method: Rats were anesthetized via an intra-peritoneal (ip) injection of ketamine/xylazine (80/10 mg/kg). A half dose (40 mg/kg ketamine) was given as supplemental anesthesia as needed. Animals were placed on a heating pad set to maintain body temperature at approximately 37°C. Body temperature was monitored throughout the experiment via a rectal temperature probe.
Once consciousness had been lost, the trachea was isolated and an endotracheal tube was inserted for mechanical ventilation. The endotracheal tube was connected to a mechanical ventilator that provided positive-pressure ventilation with room air, set to maintain 60 breaths/min with a tidal volume of 15 ml/kg. An incision was made on both sides of the neck. Both carotid arteries and a jugular vein were isolated and ligated anteriorly. A Millar pressure catheter was introduced into the left carotid artery to measure systolic arterial pressure (SAP), diastolic pressure (DAP), mean arterial pressure (MAP) and heart rate (HR). Another Millar pressure catheter was introduced into the left ventricular chamber through the right carotid artery to measure left ventricular systolic pressure (LVSP) and left ventricular end diastolic pressure (LVEDP).
A cannula for test compound administration was placed into a jugular vein. A lead II electrocardiogram was recorded via needle electrodes placed in the right arm, left leg and chest and PR and QRS intervals were reported.
After rats were surgically instrumented, hemodynamic and electrocardiographic monitoring was initiated. […] The duration of the experimental testing was approximately 60 minutes.
At the end of each infusion period, approximately 0.5 ml of blood was withdrawn from the vena cava into a pre-chilled collection tube containing 2.5 ml of 90% ACN (acetonitrile):10% water.

## CC(C)[C@@]12C[C@@H](O)[C@@](C)(O1)[C@@H]1CC[C@@H](C)[C@H]1[C@@H]2OC(=O)/C=C/c1ccccc1 [Englerin B]
TRPC4
  induced current: did not induce current
[1]
  blood levels of englerin B after dosing englerin A: > 0.05 µM
[2]
  Outcome: No effect
  Compound concentration in blood: 0.539 µM and 0.362 µM and 0.462 µM and 0.442 µM
[2]; listed as englerin B
  Outcome: no effect on mean arterial pressure or animal viability
  Compound concentration in blood: 0.362 to 0.539 µM
